Source: patent US9090651B2, “Helix 12 directed pharmaceutical products” (ENDORECHERCHE, INC., priority 2004, dated 2015)
Values joined by “and” are separate entries in the source; they are usually repeats but may differ in a detail not shown here. Equal values may be shown once. Read-outs that look alike come from different tables or passages of the source.

Experiments:
[1] = system: Shionogi mouse mammary carcinoma cells; assay: Androgenic/antiandrogenic activity on DHT-stimulated Shionogi cell growth; type: cell-based
Human Androgen Receptor = molecular target: T1, Human Androgen Receptor (Homo sapiens, UniProt P10275); assay: Androgen receptor binding assay (hydroxylapatite, [3H]R1881, cytosol of transfected HEK-293 cells); conditions: for Androgen Receptor Binding (%) Human RBA R1881 = 100: % RBA=100×IC50 R1881/IC50 compound, transfected cells
T1 sequence (P10275 1-920): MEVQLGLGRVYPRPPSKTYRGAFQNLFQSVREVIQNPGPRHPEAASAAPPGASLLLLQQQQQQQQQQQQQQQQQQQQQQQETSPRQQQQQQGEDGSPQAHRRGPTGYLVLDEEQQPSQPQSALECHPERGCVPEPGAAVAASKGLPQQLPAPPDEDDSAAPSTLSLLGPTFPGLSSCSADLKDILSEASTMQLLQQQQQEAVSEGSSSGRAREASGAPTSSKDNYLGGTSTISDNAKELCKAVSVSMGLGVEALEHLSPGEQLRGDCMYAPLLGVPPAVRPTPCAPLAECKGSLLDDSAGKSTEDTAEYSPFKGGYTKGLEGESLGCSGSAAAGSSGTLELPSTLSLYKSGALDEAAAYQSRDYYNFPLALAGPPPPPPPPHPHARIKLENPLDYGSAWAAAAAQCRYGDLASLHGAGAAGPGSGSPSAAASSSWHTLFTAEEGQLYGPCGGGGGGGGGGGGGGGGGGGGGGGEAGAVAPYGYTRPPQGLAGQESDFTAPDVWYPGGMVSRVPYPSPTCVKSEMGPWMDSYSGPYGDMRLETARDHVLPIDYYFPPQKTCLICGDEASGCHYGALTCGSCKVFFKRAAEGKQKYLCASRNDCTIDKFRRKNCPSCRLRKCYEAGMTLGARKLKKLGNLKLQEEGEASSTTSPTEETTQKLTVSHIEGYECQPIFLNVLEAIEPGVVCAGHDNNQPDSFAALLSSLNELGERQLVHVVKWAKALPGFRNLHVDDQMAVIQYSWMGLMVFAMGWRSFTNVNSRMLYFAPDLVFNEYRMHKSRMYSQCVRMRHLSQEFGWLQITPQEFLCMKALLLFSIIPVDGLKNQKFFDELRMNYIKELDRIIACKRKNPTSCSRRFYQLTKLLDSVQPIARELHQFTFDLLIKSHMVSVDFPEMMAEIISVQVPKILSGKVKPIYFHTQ

[2] = Mus musculus, read-out: Shionogi Antiandrogenic activity IC50 (nM), inhibition of DHT-stimulated Shionogi cell number
[3] = read-out: Shionogi Antiandrogenic activity IC50, inhibition of DHT-stimulated Shionogi cell number

Structure (SMILES) | IC50 [1, 2] [nM] | Androgen Receptor Binding (%) Human RBA R1881 = 100 (Human Androgen Receptor) | IC50 [1, 3] | IC50 ([1]; Mus musculus, inhibition of DHT-stimulated Shionogi cell number, read-out: Shionogi Antiandrogenic activity IC50) [nM] | relative binding affinity to the wild-type hAR (Human Androgen Receptor)
CCCN(Cc1cccc(OCC[C@]23CCC4C(CCC5CC(=O)CC[C@@]54C)C2CC[C@@H]3O)c1)C1CCCC1 (stereo partly drawn) [EM-6567] | 5.5 | 126% |  |  | 
COCC(NC1CCCCC1)c1cccc(OCC[C@]23CCC4C(CCC5CC(=O)CC[C@@]54C)C2CCC3O)c1 (stereo partly drawn) [EM-6972] | 1.2 | 151% |  |  | 
CCCN(C1CC1)C(CC)c1cccc(OCC[C@]23CCC4C(CCC5CC(=O)CC[C@@]54C)C2CC[C@@H]3O)c1 (stereo partly drawn) [EM-6735] | 3.2 | 2385% |  |  | 
CCC(CC)NCc1cc(C#N)cc(OCC[C@]23CCC4C(CCC5CC(=O)CC[C@@]54C)C2CC[C@@H]3O)c1 (stereo partly drawn) [EM-6509] | 1.9 | 119% |  |  | 
CCC(CC)NC(CC)c1ccc(F)c(OCC[C@]23CCC4C(CCC5CC(=O)CC[C@@]54C)C2CC[C@@H]3O)c1 (stereo partly drawn) [EM-6449] | 0.9 | 103% |  |  | 
CCC(NC1CCOCC1)c1cncc(OCC[C@]23CCC4C(CCC5=CC(=O)CC[C@@]54C)C2CCC3O)c1 (stereo partly drawn) [EM-7176] | 7.2 | 16% |  |  | 
CC(C)CNCc1cccc(OCC[C@]23CCC4C(CCC5CC(=O)CC[C@@]54C)C2CC[C@@H]3O)c1 (stereo partly drawn) [EM-6307] | 2.5 | 99% | 2.9 nM |  | 
C[C@]12CCC(=O)CC1CCC1C2CC[C@]2(CCOc3cccc(CNc4ccncc4)c3)C(O)CCC12 (stereo partly drawn) [EM-6856] | 32 | 6% |  |  | 
CCCC(NC1CCCCC1)c1cccc(OCC[C@]23CCC4C(CCC5CC(=O)CC[C@@]54C)C2CC[C@@H]3O)c1 (stereo partly drawn) [EM-6737] | 1.6 | 292.5% |  |  | 
C[C@@H]1C(NCc2cccc(OCC[C@]34CCC5C(CCC6CC(=O)CC[C@@]65C)C3CC[C@@H]4O)c2)CCC[C@@H]1C (stereo partly drawn) [EM-6437] | 4 | 80% |  |  | 
CC(C)(O)C(=O)Nc1ccc([N+](=O)[O-])c(C(F)(F)F)c1 [OH-FLU, hydroxyflutamide, reference compound] |  | 0.29% and 0.1% |  |  | 
C[C@]12CCC(=O)CC1CCC1C2CC[C@@]2(CCOc3cccc(CNC4CC5CCC4C5)c3)C1CC[C@@H]2O (stereo partly drawn) [EM-6471] |  | 13% | 6.4 nM and 9.6 nM |  | 
CC(C)(c1cccc(OCC[C@]23CCC4C(CCC5CC(=O)CC[C@@]54C)C2CC[C@@H]3O)c1)N1CCCCC1 (stereo partly drawn) [EM-6740] | 15 | 42.5% |  |  | 
CC[C@@H](NC1CCCCC1)c1cccc(OCC[C@]23CCC4C(CCC5CC(=O)CC[C@@]54C)C2CCC3=O)c1 (stereo partly drawn) [EM-7063] | 0.51 | 115% |  |  | 
CCC(NC1CCCCC1)c1cc(OCC[C@]23CCC4C(CCC5=CC(=O)CC[C@@]54C)C2CCC3O)ccn1 (stereo partly drawn) [EM-7166] | 3.5 | 22.3% |  |  | 
CCC(CC)CNC(CC)(CC)c1cccc(OCC[C@]23CCC4C(CCC5CC(=O)CC[C@@]54C)C2CCC3=O)c1 (stereo partly drawn) [EM-7002] | 23 | 2088% |  |  | 
CCN(C1CCCCC1)[C@H](C)c1cccc(OCC[C@]23CCC4C(CCC5C[C@@H](O)CC[C@@]54C)C2CC[C@@H]3O)c1 (stereo partly drawn) [EM-6556] | 1.7 | 6.9% |  |  | 
CCC(NC(C)CC(F)(F)F)c1cccc(OCC[C@]23CCC4C(CCC5CC(=O)CC[C@@]54C)C2CC[C@@H]3O)c1 (stereo partly drawn) [EM-6700] | 49.9 | 670% |  |  | 
C[C@H](c1cccc(OCC[C@]23CCC4C(CCC5C[C@@H](O)CC[C@@]54C)C2CC[C@@H]3O)c1)N(C)C1CCCCC1 (stereo partly drawn) [EM-6555] | 5.6 | 4.6% |  |  | 
CCC(CC)NC(CC)c1cccc(OCC[C@]23CCC4C(CCC5=CC(=O)CC[C@@]54C)C2CC[C@@H]3O)c1 (stereo partly drawn) [EM-6526] |  | 59% |  |  | 
CCCC(NC(CC)CC)c1cccc(OCC[C@]23CCC4C(CCC5CCOC[C@@]54C)C2CCC3O)c1 (stereo partly drawn) [EM-6876] |  | 44.4% |  | 16 | 
CC(NC1CCCC1)c1cccc(OCC[C@]23CCC4C(CCC5CC(=O)CC[C@@]54C)C2CC[C@@H]3O)c1 (stereo partly drawn) [EM-6536] |  | 87% |  |  | 
CCCCC(NC(CC)CC)c1cccc(OCC[C@]23CCC4C(CCC5CC(=O)CC[C@@]54C)C2CCC3O)c1 (stereo partly drawn) [EM-6906] | 0.5 | 372% |  |  | 

Structure (SMILES) | IC50 [1, 2] [nM] | Androgen Receptor Binding (%) Human RBA R1881 = 100 (Human Androgen Receptor) | IC50 [1, 3] | IC50 ([1]; Mus musculus, inhibition of DHT-stimulated Shionogi cell number, read-out: Shionogi Antiandrogenic activity IC50) [nM] | relative binding affinity to the wild-type hAR (Human Androgen Receptor)
O=C1C=C2CCC3C(CC[C@@]4(CCOc5cccc(CN6CCCCC6)c5)C3CC[C@@H]4O)C2CC1 (stereo partly drawn) [EM-6564] | 66 | 3.6% |  |  | 
CCC(NC1CCS(=O)(=O)CC1)c1cccc(OCC[C@]23CCC4C(CCC5CC(=O)CC[C@@]54C)C2CCC3O)c1 (stereo partly drawn) [EM-6836] | 2.4 | 62% |  |  | 
CN(C)CC(NC1CCCCC1)c1cncc(OCC[C@]23CCC4C(CCC5=CC(=O)CC[C@@]54C)C2CCC3O)c1 (stereo partly drawn) [EM-7221] | 11 | 20% |  |  | 
CCC(NC1CCCC1)c1cc(OCC[C@]23CCC4C(CCC5=CC(=O)CC[C@@]54C)C2CCC3O)ccn1 (stereo partly drawn) [EM-7165] | 1.4 | 26.6% |  |  | 
CC[C@H](NC1CCCCC1)c1cccc(OCC[C@]23CCC4C(CCC5CC(=O)CC[C@@]54C)C2CCC3O)c1 (stereo partly drawn) [EM-7055] | 0.64 | 242% |  |  | 
CC(C)CC(C)NCc1cccc(OCC[C@]23CCC4C(CCC5CC(=O)CC[C@@]54C)C2CC[C@@H]3O)c1 (stereo partly drawn) [EM-6403] | 5.6 | 54% |  |  | 
CCC(Nc1ccncc1)c1cccc(OCC[C@]23CCC4C(CCC5CC(=O)CC[C@@]54C)C2CCC3O)c1 (stereo partly drawn) [EM-6857] | 63 | 5% |  |  | 
CCCCC(NC1CCCCC1)c1cccc(OCC[C@]23CCC4C(CCC5CC(=O)CC[C@@]54C)C2CCC3O)c1 (stereo partly drawn) [EM-6895] | 4.2 | 115.5% |  |  | 
CCC(CC)CNC(CC)(CC)c1cccc(OCC[C@]23CCC4C(CCC5CC(=O)CC[C@@]54C)C2CCC3O)c1 (stereo partly drawn) [EM-7001] | 17 | 1981% |  |  | 
Cc1ccc(CNC2CCCCC2)cc1OCC[C@]12CCC3C(CCC4CC(=O)CC[C@@]43C)C1CC[C@@H]2O (stereo partly drawn) [EM-6453] | 4.7 | 33% |  |  | 
CCC(NC1CCOCC1)c1cccc(OCC[C@]23CCC4C(CCC5CC=CC[C@@]54C)C2CCC3O)c1 (stereo partly drawn) [EM-6791] | 45.5 | 50.2% |  |  | 
C[C@]12CCC(=O)CC1CCC1C2CC[C@@]2(CCOc3cccc(CNC4CC5CCC4C5)c3)C1CC[C@@H]2O (stereo partly drawn) [EM-6470] |  | 34% and 62% | 3.5 nM and 2.4 nM |  | 
CCC(c1cncc(OCC[C@]23CCC4C(CCC5CC(=O)CC[C@@]54C)C2CCC3O)c1)N1CCOCC1 (stereo partly drawn) [EM-7106] | 81 | 2.5% |  |  | 
CC(C)(NCc1ccccc1)c1cccc(OCC[C@]23CCC4C(CCC5CC(=O)CC[C@@]54C)C2CC[C@@H]3O)c1 (stereo partly drawn) [EM-6708] | 27.5 | 62% |  |  | 
CCC(NC1CCCCC1)c1cncc(OCC[C@]23CCC4C(CCC5=CC(=O)CC[C@@]54C)C2CCC3O)c1 (stereo partly drawn) [EM-7094] | 1.4 | 70.8% |  |  | 
CCC(NC(C)C)c1cc(OCC[C@]23CCC4C(CCC5CC(=O)CC[C@@]54C)C2CCC3O)ccn1 (stereo partly drawn) [EM-7170] |  | 120.6% |  |  | 
CCC(NC(C)C)c1cc(OCC[C@]23CCC4C(CCC5=CC(=O)CC[C@@]54C)C2CCC3O)ccn1 (stereo partly drawn) [EM-7167] |  | 42% |  |  | 
CCCC(c1cccc(OCC[C@]23CCC4C(CCC5CC(=O)CC[C@@]54C)C2CC[C@@H]3O)c1)N(C)C(CC)CC (stereo partly drawn) [EM-6572] |  | 744% |  |  | 
C[C@]1(O)CC[C@H]2[C@@H]3CCC4=CC(=O)CCC4=C3C=C[C@@]21C [R1881, reference compound] |  |  |  |  | 100
CCC[C@]1(O)CCC2C3CCC4CC(=O)CC[C@]4(C)C3CC[C@@]21CCOc1cccc(C(CC)NC(CC)CC)c1 (stereo partly drawn) [EM-6522] |  | 41% |  |  | 
C[C@H](NC1CCCCC1)c1cccc(OCC[C@]23CCC4C(CCC5CC(=O)CC[C@@]54C)C2CC[C@@H]3O)c1 (stereo partly drawn) [EM-6271] |  | 196% and 178% |  |  | 
CC(C)(C)CNCc1cccc(OCC[C@]23CCC4C(CCC5CC(=O)CC[C@@]54C)C2CC[C@@H]3O)c1 (stereo partly drawn) [EM-6335] |  | 106% and 86% |  |  | 
